What was measured:
Cell viability, MTT test = format: cell-based; settings: human, SH-SY5Y neuroblastoma cells, 24-h exposure, read-out: IC50 cytotoxic action
Description: The culture of human neuroblastoma cells (defined as SH-SY5Y) was cultured in DMEM with the addition of embryonic bovine serum (10%), 2 mM glutamine (DiaM, Moscow, Russia) and penicillin-streptomycin (100 U/Ml–100 µg/mL, PanEco, Moscow, Russia) in conditions of 5% CO2 in the air at 37 °C. Upon reaching 80% confluence, cells in the amount of 1 × 10^4 were placed in 96-well transparent plates and incubated under the same conditions for 24 h. After the incubation time, the cells were exposed to a 24-h exposure to various concentrations of hydroxamic acids dissolved in dimethyl sulfoxide (range from 1 to 100 µM). An equivalent volume of solvent was used as a control (final DMSO content = 1%).
Cell survival analysis was performed using MTT test. To do this, 3-(4,5-dimethylthiazol-2-yl)-2,5-diphenyltetrazolium bromide (MTT, 5 mg/mL, DiaM, Moscow, Russia) was introduced into all wells and incubated at 37 °C for 2 h to restore metabolically active cells of the yellow tetrazolium salt MTT to purple formazane crystals. The resulting formazane was then re-suspended in 200 µL DMSO per well. The optical density was recorded using a multifunctional Cytation™3 flatbed analyzer (BioTek Instruments, Inc., Winooski, VT, USA) at λ = 530 nm.

5xFAD transgenic mice = assay: Morris Water Maze test in 5xFAD transgenic mice; format: in vivo; settings: 5xFAD mice; for Latency to platform: 15 mg/kg intraperitoneal
Text: (§1) As part of the in vivo testing of the biological activity of the leader compound, a transgenic mouse model with Alzheimer’s disease 5xFAD at the age of 13 months was used. This line expresses two human genes: APP (amyloid peptide precursor protein gene) with three types of mutations (Swedish (K670N, M671L), Florida (I716V) and London (V717I)), as well as the presenilin 1 gene with mutations (M146L and L286V) characteristic of this disease. Clinically healthy wildtype single-litter mice C57Bl6/j (n = 8) were used as a control group. Transgenic 5xFAD mice were randomly divided into two groups: (1) animals receiving intraperitoneal injections of hydroxamic acid 35a at a dose of 15 mg/kg (10% DMSO + NaCl) for three weeks—the 5xFAD + 35a group (n = 8) and (2) mice receiving an equivalent volume of solvent—the group 5xFAD (n = 8). All animals were kept in standard vivarium conditions at a temperature of 22 ± 1 °C and a humidity of 55% indoors with a 12-h light–dark cycle. The animals had no restrictions in the consumption of water and food. The study of the neurobehavioral profile was started on the 15th day of the experiment.
The Morris Water Maze test was performed for five consecutive days to assess the formation of spatial learning and memory dependent on the hippocampus.
The installation consisted of a pool (Open Science, Moscow, Russia) with a diameter of 150 cm, filled to a depth of 40 cm with water (22 ± 1 °C). The lighting conditions were as follows: the dark side of the pool—50 lux; the light side—75 lux. […]
Testing was carried out according to a standard protocol, where for the first four days mice were placed in a pool with a platform hidden under water (1.5 cm below the water surface) in one of the quadrants of the pool. […] To do this, the animals were placed in the pool for 90 s and a number of indicators of the neurobehavioral profile were recorded.
All experimental attempts in the Morris water maze were recorded on a camera capturing video images from above the pool, which were processed using EthoVision software.

[1] = system: 5xFAD transgenic mice brain; assay: MDA level in brain samples (TBA test); format: in vivo; settings: 21-day administration, 15 mg/kg; p = 0.001 vs 5xFAD
Text: As part of the in vivo testing of the biological activity of the leader compound, a transgenic mouse model with Alzheimer’s disease 5xFAD at the age of 13 months was used. This line expresses two human genes: APP (amyloid peptide precursor protein gene) with three types of mutations (Swedish (K670N, M671L), Florida (I716V) and London (V717I)), as well as the presenilin 1 gene with mutations (M146L and L286V) characteristic of this disease. Clinically healthy wildtype single-litter mice C57Bl6/j (n = 8) were used as a control group. […]
To determine the level of malondialdehyde in the brain of animals, the samples were homogenized in a buffer solution and subjected to a centrifugation procedure at 12,000 rpm for 10 min at 4 °C, after which the infusion fluid was collected for subsequent analysis. Quantitative determination of the protein was carried out as described earlier.
The content of malondialdehyde was determined using a modified TBA test. […] The optical density of the selected suprasetting fluid was measured using a multifunctional Cytation™3 flatbed analyzer (BioTek Instruments, Inc., Winooski, VT, USA) at λ = 540 nm.

[2] = system: 5xFAD transgenic mice brain mitochondria; assay: Mitochondrial oxygen consumption rate of brain p2 fraction (Seahorse); format: in vivo; settings: p2 fraction of 5xFAD mice treated for three weeks, vs 5xFAD
Text: as §1, with “All animals were kept in standard vivarium conditions at a temperature of 22 ± 1 °C and a humidity of 55% indoors with a 12-h light–dark cycle. The animals had no restrictions in the consumption of water and food. The study of the neurobehavioral profile was started on the 15th day of the experiment.” left out
The analysis of the work of the complexes of the electron transport chain of mitochondria was carried out on the mitochondrial p2 fraction obtained from brain samples of animals of experimental groups. Mitochondrial respiration was determined by the rate of oxygen consumption by organelles using the Seahorse XFe96 cell metabolism analyzer (Seahorse Bioscience, North Billerica, MA, USA), in full compliance with the protocol described in [169].

melting point: 179.9 °C
SMILES: C=C(C)[C@@H]1CC=C(CNC(=O)/C=C/c2ccc(C(=O)NO)cc2)CC1 [Compound 35a, (S,E)-N-hydroxy-4-(3-oxo-3-(((4-(prop-1-en-2-yl)cyclohex-1-en-1-yl)methyl)amino)prop-1-en-1-yl)benzamide]
IC50 at 24 h (Cell viability, MTT test): 89.2 ± 2.09 µM | Latency to platform (5xFAD transgenic mice; first day of training): 55.70 ± 2.10 s | Latency to platform (5xFAD transgenic mice; fourth day of training, p = 0.039 vs day 1): 40.93 ± 5.47 s | number of entrances to the target quadrant, Probe trial (5xFAD transgenic mice; 15 mg/kg, fifth day, p = 0.203 vs C57Bl6/j): same number of entrances to the target quadrant of the maze was found with the control group | MDA level in brain (increase in 5xFAD mice) [1]: reversed | activity of complex IV (oxygen consumption rate), increase ([2]; p < 0.0001): 177.57% | activity of complex II (oxygen consumption rate), increase ([2]; p = 0.0025): 57.30%

Source: PMC10254045, “Elaboration of the Effective Multi-Target Therapeutic Platform for the Treatment of Alzheimer’s Disease Based on Novel Monoterpene-Derived Hydroxamic Acids” (International Journal of Molecular Sciences, 2023)
